Experimental data taken from patent publication EP1043986B1, “MIXTURE AND PHARMACEUTICAL COMPOSITION COMPRISING Z-4-HYDROXYTAMOXIFEN AND CYCLODEXTRIN” (priority 1997, dated 1999).

Assay: 10-day stability test in water and in 96 % ethanol, room temperature, normal day light, capillary electrophoresis
Format: physicochemical
Details: 10-days storage in 96 % ethanol
Procedure: A 10-day stability test in water and in 96 % ethanol at room temperature and exposure to normal day light, using 4-hydroxytamoxifen and the 4-hydrorytamoxifen/ γ-cyclodextrin complex prepared according to example 1 was performed. The change of E/Z isomer ratio was analyzed with capillary electrophoresis.

Question: What does the source list for “1-(p-β-dimethylaminoethoxyphenyl)-1-(p-hydroxyphenyl)-2-phenylbut-1-en [4-Hydroxytamoxifen]”?
Answer: Efficiency value (ratio of uncomplexed and complexed 4-hydroxytamoxifen re/z values): 4,65; Ratio re/z (room temperature, normal day light): 0,223
